These results are taken from patent US20250186321A1, “FORMULATION USING AMINO ACID AND CARBOXYLIC ACID, ORGANIC SALT, AND COMPOSITION COMPRISING SAME AND USE THEREOF” (MIYOSHI OIL & FAT CO., LTD., priority 2021, published 2025).

This data set in a line: Appearance of formulation (state at 25° C.). It counts as physicochemical. The procedure: Formulations 1 to 427 shown in Tables 1A to 1D were prepared by the above-described method using the components (A) and (B) at the compounding molar ratios shown in the tables, and their states at 25° C. were observed.
Where [1] appears, read: 25° C., components (A) and (B) at the compounding molar ratio shown.

With `NCCCC[C@H](N)C(=O)O.O=CO` [Formulation 1], the “state at 25° C.” value under setting [1] is reported as “Solid”. `CC(=O)O.NCCCC[C@H](N)C(=O)O` [Formulation 2]: under setting [1], the “state at 25° C.” value is “Solid”.

Turning to `CCC(=O)O.NCCCC[C@H](N)C(=O)O` [Formulation 3], the “state at 25° C.” value under setting [1] is reported as “Solid”. Same read-out and setting: as for `CCCC(=O)O.NCCCC[C@H](N)C(=O)O` [Formulation 5], the entry is “Solid”. Still for that read-out and setting: the value for `CCCCC/C=C\C/C=C\CCCCCCCC(=O)O.NCCCC[C@H](N)C(=O)O` [Formulation 8] was “Solid”; that for `CC(O)C(=O)O.NCCCCC(N)C(=O)O` (stereo not drawn) [Formulation 10] was “Solid”. For the molecule `NCCCC[C@H](N)C(=O)O.O=C(O)CCCCC(=O)O` [Formulation 11], the “state at 25° C.” value under setting [1] is on record as “Solid”. Same read-out and setting: the value for `NCCCC[C@H](N)C(=O)O.O=C(O)CCC(=O)O` [Formulation 12] was “Solid”; that for `NCCCC[C@H](N)C(=O)O.N[C@@H](CCC(=O)O)C(=O)O` [Formulation 13] was “Solid”; that for `NCCCC[C@H](N)C(=O)O.O=C(O)/C=C/C(=O)O` [Formulation 14] was “Liquid”. `NCCCC[C@H](N)C(=O)O.O=C(O)C[C@H](O)C(=O)O` [Formulation 15]: the “state at 25° C.” value under setting [1] is recorded as “Solid”. Regarding `NCCCC[C@H](N)C(=O)O.O=C(O)C(O)C(O)C(=O)O` [Formulation 17], under setting [1], the “state at 25° C.” value is on record as “Solid”. Turning to `NCCCC[C@H](N)C(=O)O.O=C(O)c1ccccc1` [Formulation 18], under setting [1], the “state at 25° C.” value is listed as “Solid”.

Turning to `NCCCC[C@H](N)C(=O)O.O=C(O)/C=C/c1ccccc1` [Formulation 19], under setting [1], the “state at 25° C.” value was “Solid”. With `NCCCC[C@H](N)C(=O)O.O=C1O[C@H]([C@@H](O)CO)C(O)=C1O` [Formulation 20], under setting [1], the “state at 25° C.” value is listed as “Solid”. Same read-out and setting: as for `NCCCC[C@H](N)C(=O)O.O=C1O[C@H]([C@H](O)CO)C(O)=C1O` [Formulation 21], the entry is “Liquid”; as for `NCCCC[C@H](N)C(=O)O.O=CO.O=CO` [Formulation 22], “Solid”. On to `CC(=O)O.CC(=O)O.NCCCC[C@H](N)C(=O)O` [Formulation 23], for which the “state at 25° C.” value under setting [1] was “Solid”. Same read-out and setting: as for `CCC(=O)O.CCC(=O)O.NCCCC[C@H](N)C(=O)O` [Formulation 24], the entry is “Solid”; as for `CCCCCC(=O)O.CCCCCC(=O)O.NCCCC[C@H](N)C(=O)O` [Formulation 25], “Solid”.

`CCCC(=O)O.CCCC(=O)O.NCCCC[C@H](N)C(=O)O` [Formulation 26]: the “state at 25° C.” value under setting [1] is recorded as “Solid”. For `CCCCCCCC/C=C\CCCCCCCC(=O)O.CCCCCCCC/C=C\CCCCCCCC(=O)O.NCCCC[C@H](N)C(=O)O` [Formulation 28], the “state at 25° C.” value under setting [1] is “Solid”.

As for `CCCCC/C=C\C/C=C\CCCCCCCC(=O)O.CCCCC/C=C\C/C=C\CCCCCCCC(=O)O.NCCCC[C@H](N)C(=O)O` [Formulation 29], the “state at 25° C.” value under setting [1] is on record as “Solid”. The same measure, in the same setting: the value for `CC(O)C(=O)O.CC(O)C(=O)O.NCCCC[C@H](N)C(=O)O` [Formulation 31] was “Solid”; that for `NCCCC[C@H](N)C(=O)O.O=C(O)CCCCC(=O)O.O=C(O)CCCCC(=O)O` [Formulation 32] was “Solid”. Same read-out and setting: the value for `NCCCC[C@H](N)C(=O)O.O=C(O)CCC(=O)O.O=C(O)CCC(=O)O` [Formulation 33] was “Solid”. With `NCCCC[C@H](N)C(=O)O.N[C@@H](CCC(=O)O)C(=O)O.N[C@@H](CCC(=O)O)C(=O)O` [Formulation 34], the “state at 25° C.” value under setting [1] was “Solid” and the “state at 25° C.” value (Tables 1C-1 to 1D, compounding molar ratio (Component (A):Component (B)) 1:1) is listed as “Solid”. Turning to `NCCCC[C@H](N)C(=O)O.O=C(O)/C=C/C(=O)O.O=C(O)/C=C/C(=O)O` [Formulation 35], under setting [1], the “state at 25° C.” value is “Solid”. As for `NCCCC[C@H](N)C(=O)O.O=C(O)C[C@H](O)C(=O)O.O=C(O)C[C@H](O)C(=O)O` [Formulation 36], the “state at 25° C.” value under setting [1] is “Solid”. The same measure, in the same setting: as for `NCCCC[C@H](N)C(=O)O.O=C(O)C(O)C(O)C(=O)O.O=C(O)C(O)C(O)C(=O)O` [Formulation 38], the entry is “Solid”. Take `NCCCC[C@H](N)C(=O)O.O=C(O)c1ccccc1.O=C(O)c1ccccc1` [Formulation 39]: the “state at 25° C.” value under setting [1] is on record as “Solid”. On the same count and under the same terms, the value for `NCCCCC(N)C(=O)O.O=C(O)C=Cc1ccccc1.O=C(O)C=Cc1ccccc1` [Formulation 40] was “Solid”; that for `NCCCC[C@H](N)C(=O)O.O=C1O[C@H]([C@@H](O)CO)C(O)=C1O.O=C1O[C@H]([C@@H](O)CO)C(O)=C1O` [Formulation 41] was “Solid”; that for `NCCCC[C@H](N)C(=O)O.O=C1O[C@H]([C@H](O)CO)C(O)=C1O.O=C1O[C@H]([C@H](O)CO)C(O)=C1O` [Formulation 42] was “Solid”. On the same count and under the same terms, as for `N=C(N)NCCC[C@H](N)C(=O)O.O=CO` [Formulation 43], the entry is “Solid”; as for `CC(=O)O.N=C(N)NCCC[C@H](N)C(=O)O` [Formulation 44], “Solid”; as for `CCC(=O)O.N=C(N)NCCC[C@H](N)C(=O)O` [Formulation 45], “Solid”. The same measure, in the same setting: the value for `CCCCCC(=O)O.N=C(N)NCCC[C@H](N)C(=O)O` [Formulation 46] was “Solid”; that for `CCCC(=O)O.N=C(N)NCCC[C@H](N)C(=O)O` [Formulation 47] was “Solid”; that for `N=C(N)NCCC[C@H](N)C(=O)O.O=C(O)CCCCC(=O)O` [Formulation 53] was “Solid”. Take `N=C(N)NCCC[C@H](N)C(=O)O.O=C(O)CCC(=O)O` [Formulation 54]: the “state at 25° C.” value under setting [1] is listed as “Solid”. Still for that read-out and setting: as for `N=C(N)NCCC[C@H](N)C(=O)O.N[C@@H](CCC(=O)O)C(=O)O` [Formulation 55], the entry is “Solid”; as for `N=C(N)NCCC[C@H](N)C(=O)O.O=C(O)/C=C/C(=O)O` [Formulation 56], “Solid”; as for `N=C(N)NCCC[C@H](N)C(=O)O.O=C(O)/C=C/c1ccccc1` [Formulation 61], “Solid”.

On to `N=C(N)NCCCC(N)C(=O)O.O=CO.O=CO` (stereo not drawn) [Formulation 64], for which the “state at 25° C.” value under setting [1] is recorded as “Solid”. Still for that read-out and setting: as for `CC(=O)O.CC(=O)O.N=C(N)NCCC[C@H](N)C(=O)O` [Formulation 65], the entry is “Solid”; as for `CCC(=O)O.CCC(=O)O.N=C(N)NCCC[C@H](N)C(=O)O` [Formulation 66], “Solid”.

As for `CCCCCC(=O)O.CCCCCC(=O)O.N=C(N)NCCC[C@H](N)C(=O)O` [Formulation 67], the “state at 25° C.” value under setting [1] is “Solid”. Still for that read-out and setting: as for `CCCC(=O)O.CCCC(=O)O.N=C(N)NCCC[C@H](N)C(=O)O` [Formulation 68], the entry is “Solid”.

For `N=C(N)NCCC[C@H](N)C(=O)O.O=C(O)CCCCC(=O)O.O=C(O)CCCCC(=O)O` [Formulation 74], the “state at 25° C.” value under setting [1] is on record as “Solid”.

With `N=C(N)NCCC[C@H](N)C(=O)O.O=C(O)CCC(=O)O.O=C(O)CCC(=O)O` [Formulation 75], under setting [1], the “state at 25° C.” value was “Solid”. Still for that read-out and setting: as for `N=C(N)NCCC[C@H](N)C(=O)O.N[C@@H](CCC(=O)O)C(=O)O.N[C@@H](CCC(=O)O)C(=O)O` [Formulation 76], the entry is “Solid”; as for `N=C(N)NCCC[C@H](N)C(=O)O.O=C(O)/C=C/C(=O)O.O=C(O)/C=C/C(=O)O` [Formulation 77], “Solid”; as for `N=C(N)NCCC[C@H](N)C(=O)O.O=C(O)c1ccccc1.O=C(O)c1ccccc1` [Formulation 81], “Solid”. As to `N=C(N)NCCCC(N)C(=O)O.O=C(O)C=Cc1ccccc1.O=C(O)C=Cc1ccccc1` (stereo not drawn) [Formulation 82], the “state at 25° C.” value under setting [1] is listed as “Solid”. For `N=C(N)NCCC[C@H](N)C(=O)O.O=C1O[C@H]([C@@H](O)CO)C(O)=C1O.O=C1O[C@H]([C@@H](O)CO)C(O)=C1O` [Formulation 83], under setting [1], the “state at 25° C.” value is given as “Solid”. Same read-out and setting: as for `N[C@@H](Cc1c[nH]cn1)C(=O)O.O=CO` [Formulation 85], the entry is “Solid”; as for `CC(=O)O.N[C@@H](Cc1c[nH]cn1)C(=O)O` [Formulation 86], “Solid”. With `CCC(=O)O.N[C@@H](Cc1c[nH]cn1)C(=O)O` [Formulation 87], the “state at 25° C.” value under setting [1] was “Solid”. Take `CCCCCC(=O)O.N[C@@H](Cc1c[nH]cn1)C(=O)O` [Formulation 88]: the “state at 25° C.” value under setting [1] is “Solid”. On to `CCCC(=O)O.N[C@@H](Cc1c[nH]cn1)C(=O)O` [Formulation 89], for which the “state at 25° C.” value under setting [1] is listed as “Solid”. On the same count and under the same terms, the value for `CCCCCCCC/C=C\CCCCCCCC(=O)O.N[C@@H](Cc1c[nH]cn1)C(=O)O` [Formulation 91] was “Solid”; that for `CCCCC/C=C\C/C=C\CCCCCCCC(=O)O.N[C@@H](Cc1c[nH]cn1)C(=O)O` [Formulation 92] was “Solid”. Still for that read-out and setting: as for `CC(O)C(=O)O.N[C@@H](Cc1cnc[nH]1)C(=O)O` [Formulation 94], the entry is “Solid”; as for `N[C@@H](Cc1c[nH]cn1)C(=O)O.O=C(O)CCCCC(=O)O` [Formulation 95], “Solid”; as for `N[C@@H](Cc1c[nH]cn1)C(=O)O.O=C(O)CCC(=O)O` [Formulation 96], “Solid”.

Turning to `N[C@@H](CCC(=O)O)C(=O)O.N[C@@H](Cc1c[nH]cn1)C(=O)O` [Formulation 97], under setting [1], the “state at 25° C.” value is given as “Solid”. Regarding `N[C@@H](Cc1c[nH]cn1)C(=O)O.O=C(O)/C=C/C(=O)O` [Formulation 98], the “state at 25° C.” value under setting [1] is reported as “Solid”. Still for that read-out and setting: the value for `N[C@@H](Cc1cnc[nH]1)C(=O)O.O=C(O)C[C@H](O)C(=O)O` [Formulation 99] was “Solid”.

For the molecule `N[C@@H](Cc1c[nH]cn1)C(=O)O.O=C(O)C(O)C(O)C(=O)O` [Formulation 101], under setting [1], the “state at 25° C.” value is “Solid”. For `N[C@@H](Cc1c[nH]cn1)C(=O)O.O=C(O)c1ccccc1` [Formulation 102], under setting [1], the “state at 25° C.” value is recorded as “Solid”.
